One assay concerns the target T1, collagenase (MMP-1) (Homo sapiens, UniProt P03956).
T1 sequence (P03956 100-469): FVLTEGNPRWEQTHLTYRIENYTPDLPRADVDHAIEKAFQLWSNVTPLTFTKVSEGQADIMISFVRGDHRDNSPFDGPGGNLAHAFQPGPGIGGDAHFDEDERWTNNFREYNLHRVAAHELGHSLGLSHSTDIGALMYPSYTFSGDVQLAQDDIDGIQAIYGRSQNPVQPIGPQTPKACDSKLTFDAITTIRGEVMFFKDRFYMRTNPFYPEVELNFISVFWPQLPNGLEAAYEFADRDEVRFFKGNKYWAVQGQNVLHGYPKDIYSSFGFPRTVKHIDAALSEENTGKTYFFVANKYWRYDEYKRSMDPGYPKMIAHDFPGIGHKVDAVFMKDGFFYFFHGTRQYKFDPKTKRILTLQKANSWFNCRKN
Nature of the assay: MMP-1 enzyme inhibition assay (coumarin-labelled peptide substrate McaPLGLDpaAR). As to conditions: fluorogenic substrate McaPLGLDpaAR, 37° C., 2 hours. It counts as biochemical. The protocol:
(§1) Compounds of the invention were tested to assess their activities as inhibitors of MMP-1, MMP-2, MMP-9 and MMP-12.
(§2) Stock solutions were made up as follows: Assay Butter: 100 mM Tris-HCl pH 7.6 containing 100 mM NaCl, 10 mM CaCl2, and 0.05% Brij 35.
Substrate: 0.4 mM McaPLGLDpaAR (from Bachem) (0.437 mg/ml) stock solution in 100% DMSO (stored at −20° C.). Dilute to 8 μM in assay butter.
Enzyme: Recombinant human 92 kDa gelatinase (MMP-9; APMA (4-aminophenyl mercuric acetate)—activated if necessary) appropriately diluted in assay butter.
(§3) Test Compounds were prepared initially as 10 mM compound solution in 100% DMSO, diluted to 1 mM in 100% DMSO, then serially diluted 3-fold in 100% DMSO across columns 1-10 of a 96-well microtitre plate Assay concentration range, 100 μM (column 1) to 5.1 nM (column 10).
(§4) The assay was performed in a total volume of 100 μL per well in 96-well microtitre plates. Activated enzyme (20 μL) was added to the wells followed by 20 μL of assay butter. Appropriate concentrations of test compounds dissolved in 10 μL of DMSO were then added followed by 50 μL of McaPLGLDpaAR (8 μM, prepared by dilution of DMSO stock in assay butter). For each as say ten concentrations of test compound were examined in duplicate. Control wells lack either enzyme or test compound. The reactions were incubated at 37° C. for 2 hours. The fluorescence at 405 nm was measured immediately with an SLT Fluostar fluorometer (SL T Labinstruments GmbH, Grödig, Austria) using 320 nm excitation, without stopping the reaction.
(§5) The effect of the test compound was determined from the dose response curve generated by the 10 duplicate concentrations of inhibitor. The IC50 (the concentration of compound required to give a 50% decrease in enzyme activity) was obtained by fitting data to the equation, Y=a+((b−a)/(1+(c/X)^d)). (Y=inhibition achieved for a particular dose; X=the dose in nM; a=minimum y or zero % inhibition; b=maximum y or 100% inhibition; c=is the IC50; d=is the slope). The result was rounded to one significant figure.
Compounds of the invention were tested for inhibitory activity against collagenase (MMP-1) in an assay using a coumarin-labelled peptide substrate, (7-methoxycoumarin-4-yl)acetyl-Pro-Leu-Gly-Leu-(3-[2,4-dinitrophenyl]-L-2,3diaminopropionyl)-Ala-Arg-NH2 (McaPLGLDpaAR) (Knight et al, 1992, above). The protocol for this assay was as described for the MMP-9 assay above.

For a further assay, the target named is metalloelastase (MMP-12) (Homo sapiens, UniProt P39900). Briefly: MMP-12 enzyme inhibition assay (coumarin-labelled peptide substrate McaPLGLDpaAR). Format: biochemical. As to conditions: fluorogenic substrate McaPLGLDpaAR, 37° C., 2 hours. On the procedure:
as §1, §2
Substrate: 0.4 mM McaPLGLDpaAR (from Bachem) (0.437 mg/ml) stock solution in 100% DMSO (stored at −20° C.). Dilute to 8 μM in assay butter. […]
as §3, §4, §5
Compounds of the invention were tested for inhibitory activity against metalloelastase (MMP-12) in an assay using a coumarin-labelled peptide substrate, (7-methoxycoumarin-4-yl)acetyl-Pro-Leu-Gly-Leu-(3-[2,4dinitrophenyl]-L-2,3-diaminopropionyl)-Ala-Arg-NH2 (McaPLGLDpaAR) (Knight et al, 1992, above). The protocol for this assay was as described for the MMP-9 assay above.

Assay [1] concerns IL-2-induced peritoneal recruitment of lymphocytes. Nature of the assay: IL-2-induced peritoneal recruitment of lymphocytes. Format: in vivo, C3H/HEN mice. The note with it: Mus musculus, Lymphocyte; mice, route po, given 15 min prior to IL-2 (20 μg/kg i.p.), lymphocytes counted 24 h after IL-2; read-out: ED50 in IL-2-induced peritoneal recruitment of lymphocytes model. On the procedure:
Administration of IL-2 intraperitoneally causes migration of lymphocytes into the intraperitoneal cavity. This is a model for the cellular migration that occurs during inflammation.
C3H/HEN mice (Elevage Janvier, France) were intraperitoneally injected with IL-2 (Serono Pharmaceutical Research Institute, 20 μg/kg, in saline).
Compounds of the invention were suspended in 0.5% carboxymethylcellulose (CMC)/0.25% tween-20 and were administered by s.c. or p.o. route (10 ml/kg) 15 min prior to administration of IL-2.
Twenty-four hours after administration of IL-2, peritoneal white blood cells were collected by 3 successive lavages of the peritoneal cavity with 5 ml phosphate buffered saline (PBS)-1 mM EDTA (+4° C.). The suspension was centrifuged (1700 g×10 min at +4° C.). The resulting pellet was suspended in 1 ml PBS-1 mM EDTA.
Lymphocytes were identified and counted using a Beckman/Coulter counter.
The animals were divided into 6 groups (6 mice each group):
Group 1: (baseline) received 0.5% CMC/0.25% tween-20 (vehicle of compound of the invention) and saline (vehicle of IL-2);
Group 2: (control IL-2) received 0.5% CMC/0.25% tween-20 and injection of IL-2;
Group 3: Experimental group (Compound of the invention Dose 1) received a compound of the invention and injection of IL-2; […]
Inhibition of lymphocyte recruitment was calculated as follows: […]

Some results are limits rather than exact numbers.

Sequence of metalloelastase (MMP-12) (P39900 106-470): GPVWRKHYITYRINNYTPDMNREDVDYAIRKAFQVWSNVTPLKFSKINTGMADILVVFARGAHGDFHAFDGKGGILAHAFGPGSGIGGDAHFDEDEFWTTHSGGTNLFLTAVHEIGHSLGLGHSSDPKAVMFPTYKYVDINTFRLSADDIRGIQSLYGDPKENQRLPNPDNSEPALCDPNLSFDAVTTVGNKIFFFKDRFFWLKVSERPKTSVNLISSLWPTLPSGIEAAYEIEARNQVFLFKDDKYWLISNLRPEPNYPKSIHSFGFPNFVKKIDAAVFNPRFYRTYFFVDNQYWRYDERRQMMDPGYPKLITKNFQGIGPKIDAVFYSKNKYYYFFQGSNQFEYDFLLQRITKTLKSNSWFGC

Consider `O=CN(O)C(C#Cc1ccc2c(c1)OCO2)CS(=O)(=O)N1CCN(c2ccc(F)cc2)CC1` (centres unmarked) [Example 1, 3-(1,3-benzodioxol-5-yl)-1 ({[4-(4-fluorophenyl)-1-piperazinyl]sulfonyl}methyl)-2-propynyl(hydroxy)formamide], for which the IC50 (commonly the concentration needed to halve the response being measured) is above 5000 nM on collagenase (MMP-1) and 46 nM on metalloelastase (MMP-12). Further, the ED50 (commonly the midpoint of the dose-response relation) in assay [1] was 0.8 mg/kg.
In the case of `O=CN(O)C(C#Cc1ccccc1)CS(=O)(=O)N1CCN(c2ccc(F)cc2)CC1` (centres unmarked) [Example 4, 1-({[4-(4-fluorophenyl)-1-piperazinyl]sulfonyl}methyl)-3-phenyl-2-propynyl(hydroxy)formamide], the IC50 against collagenase (MMP-1) is above 5000 nM; against metalloelastase (MMP-12), 58 nM.
Take `O=CN(O)C(C#CCc1ccccc1)CS(=O)(=O)N1CCN(c2ccc(F)cc2)CC1` (centres unmarked) [Example 6, 1-({[4-(4-fluorophenyl)-1-piperazinyl]sulfonyl}methyl)-4-phenyl-2-butynyl (hydroxy)formamide]: the IC50 was above 5000 nM at collagenase (MMP-1) and 21 nM against metalloelastase (MMP-12).
For the compound `CCCCCC#CC(CS(=O)(=O)N1CCN(c2ccc(F)cc2)CC1)N(O)C=O` (centres unmarked) [Example 7, 1-({[4-(4-fluorophenyl)-1-piperazinyl]sulfonyl}methyl)-2-octynyl(hydroxy)formamide], the IC50 is above 5000 nM against collagenase (MMP-1) and 20 nM against metalloelastase (MMP-12). Moreover, in assay [1], the ED50 turned out to be 2 mg/kg.
Regarding `COc1ccc(N2CCN(S(=O)(=O)CC(C#Cc3cccnc3)N(O)C=O)CC2)cc1` (centres unmarked) [Example 9, hydroxy[1-({[4-(4-methoxyphenyl)-1-piperazinyl]sulfonyl}methyl)-3-(3-pyridinyl)-2-propynyl]formamide], the results for the IC50 against collagenase (MMP-1) and at metalloelastase (MMP-12) were above 5000 nM and 48 nM, respectively.
For `COc1ccc(N2CCN(S(=O)(=O)CC(C#Cc3cccc(OC)c3)N(O)C=O)CC2)cc1` (centres unmarked) [Example 10, hydroxy[3-(3-methoxyphenyl)-1-({[4-(4-methoxyphenyl)-1-piperazinyl]sulfonyl}methyl)-2-propynyl]formamide], the IC50 was above 5000 nM on collagenase (MMP-1) and 33 nM on metalloelastase (MMP-12).
For `CCCCCC#CC(CS(=O)(=O)N1CCC(c2ccc(OC)cc2)CC1)N(O)C=O` (centres unmarked) [Example 19] the same measures were above 5000 nM and 18 nM.
For `O=CN(O)C(C#Cc1ccc(-c2ncon2)cc1)CS(=O)(=O)N1CCN(c2ccc(F)cc2)CC1` (centres unmarked) [Example 27, {1-({[4-(4-fluorophenyl)piperazin-1-yl]sulfonyl}methyl)-3-[4-(1,2,4-oxadiazol-3-yl)phenyl]prop-2-yn-1-yl}hydroxyformamide] the same measures were above 5000 nM and 95 nM.
With `CC(C)(CC#Cc1ccccc1)C(CS(=O)(=O)N1CCN(c2ccc(F)cc2)CC1)N(O)C=O` (centres unmarked) [Example 36, [1-({[4-(4-fluorophenyl)piperazin-1-yl]sulfonyl}methyl)-2,2-dimethyl-5-phenylpent-4-yn-1-yl]hydroxyformamide], the results for the IC50 on collagenase (MMP-1) and at metalloelastase (MMP-12) were above 5000 nM and 20 nM, respectively.
In the case of `CCN(CC)CC#CC(CS(=O)(=O)N1CCC(c2ccc(OC)cc2)CC1)N(O)C=O` (centres unmarked) [Example 37, [4-(diethylamino)-1-({[4-(4-methyloxyphenyl)piperidin-1-yl]sulfonyl}methyl)but-2-yn-1-yl]hydroxyformamide], the IC50 was above 5000 nM against collagenase (MMP-1) and 6 nM against metalloelastase (MMP-12).
`CCCCCC#CC(CS(=O)(=O)N1CCCN(c2ccc(OCC)cc2)CC1)N(O)C=O` (centres unmarked) [Example 61, [1-({[4-(4-ethyloxyphenyl)-1,4-diazepan-1-yl]sulfonyl}methyl)oct-2-yn-1-yl]hydroxyformamide]: the figures for the half-inhibitory concentration (IC50) against collagenase (MMP-1) and against metalloelastase (MMP-12) were above 5000 nM and 24 nM, respectively.
For `O=CN(O)C(C#CCN1CCCC1)CS(=O)(=O)N1CCN(c2ccc(F)cc2)CC1` (centres unmarked) [Example 64, [1-({[4-(4-fluorophenyl)piperazin-1-yl]sulfonyl}methyl)-4-pyrrolidin-1-ylbut-2-yn-1-yl]hydroxyformamide] the same measures were above 5000 nM and 40 nM.

These data come from patent US7973039B2, “Sulfonyl amino cyclic derivatives and use thereof” (Merck Serono SA, priority 2004, dated 2011).
